Experimental data reported in patent publication US6069177A, “3-Hydroxy-propanamine derived neuronal reuptake inhibitors” (priority 1997, dated 2000).
“Also recorded” adds a separate entry of the source. Read-outs that look alike come from different tables or passages of the source.

How the values were obtained:
[1] = tested on: 5-HT, NE and DA reuptake into rat brain synaptosomes; type: biochemical, rat (male Sprague-Dawley); details: for block uptake of all three neurotransmitters (5-HT, NE, and DA), Ki in words: rat brain synaptosomes
Experimental: (§1) Briefly, the tissue was homogenized in 20 volumes of ice-cold 0.32 M sucrose containing 11 mM glucose, pH 7.4 in a glass Potter-Elvehjemhomogenizer with teflon pestle (8 strokes, 900 rpm). The homogenate was centrifuged at 1,000 g for 10 minutes. The resulting supernatant was then centrifuged at 20,000 g for 20 minutes and the supernatent was discarded.
(§2) Briefly, synaptosomal protein (1.0-2.5 mg) was suspended in a total volume of 1 mL containing oxygenated incubation buffer, 10 μM pargyline to inhibit monoamine oxidase activity, 0.2 mg/mL sodium ascorbate and varying concentrations of other compounds or drugs as indicated in the text. […] After a 5 minute preincubation at 37° C. in a shaking water bath (80 oscillations/minute), the uptake was initiated by the addition of […]. The reaction was stopped after 5 minute by adding 4 mL ice-cold 0.9% (w/v) sodium chloride and rapidly filtered through a Whatman GF/B glass fiber filter in a 48-place Brandel cell harvester. The filter was then washed with an additional 8 mL of wash buffer, placed in a scintillation vial containing 5 mL of Redi-Safe (Beckman Instruments, Fullerton, Calif.) and counted. Specific uptake was calculated as the difference between the total uptake (zero unlabelled ligand) and nonspecific uptake (excess unlabelled ligand).

[2] = target: T1, DA reuptake into rat brain synaptosomes (Rattus norvegicus, UniProt P23977); assay: DA reuptake inhibition in rat brain synaptosomes; type: biochemical, rat (male Sprague-Dawley), striatal tissue; details: for DA (Rat) Reuptake Inhibition Potency: Ki (DA)/Ki (compound or drug), Prozac to Serzone derived from literature Ki
T1 construct: A crude synaptosomal (P2) fraction was prepared; tissue Harlan Sprague-Dawley (animals); host or cells: rat striatum, crude synaptosomal (P2) fraction

[3] = target: human norepinephrine transporter (hNET) (Homo sapiens, UniProt P23975); type: binding
hSERT, hNET, and hDAT = assay: Simultaneous binding to cloned human transporters hSERT, hNET and hDAT; details: for Simultaneous Transporter Binding Potency: Table 4, each of the potency values greater than 7.0; for Simultaneous Transporter Binding Potency (Human): Table 5, comparison of rat and human data; for simultaneous transporter binding potency, in words: human, each value ≥7.0
Experimental: (§3) These transporters are responsible for neuronal reuptake of the neurotransmitters.
(§4) Cells were incubated in 10% CO2, 90% air at 37° C. and 100% humidity. The selecting antibiotic geneticin sulfate (250 μg/ml) was used during the cell culture for the hNET only.
(§5) For the preparation of homogenates, medium was removed by aspiration. […] Cells were then scraped from the surface with a rubber spatula into a centrifuge tube and collected by centrifugation at 1000×g for 5 min at 4° C. Supernatants were decanted and the pellet was resuspended in the appropriate binding buffer and homogenized with the use of a Polytron for 10 sec at setting 6. This solution was centrifuged at about 36,000×g for 10 minutes (4° C.). The pellet was suspended in the same volume of buffer and the centrifugation was repeated. The supernatants were decanted and the final pellet was suspended in the appropriate buffer and stored at -80° C. until use.
(§6) For the membranal preparation, cells were homogenized in 50 mM Tris-HCl with 120 mM NaCl and 5 mM KC1 (pH 7.4). […] The reaction mixture was incubated at 22° C. for 30 min. The assay was terminated by rapid filtration of the contents of each tube through a GF/B filter strip, which had been pretreated with 0.2% polyethylenimine, with the use of a 48-well Brandel cell harvester. The filter strips were then rinsed five times with ice-cold 0.9% NaCl. Next, individual filters were cut from the strip and placed in a scintillation vial containing 6.5 mL of Redi-Safe (Beckman Instruments, Fullerton, Calif.). Radioactivity was measured with a Beckman liquid scintillation counter (LS 5000TD).
For the membranal preparation, cells were homogenized in 50 mM Tris-HCl with 300 mM NaCl and 5 mM KCl (pH 7.4). […] The reaction mixture was incubated at 22° C. for 60 min. The remaining methods were exactly as described for hSERT above.
(§7) For the membranal preparation, cells were homogenized in the 50 mM Tris-HCl with 120 mM NaCl (pH 7.4). […] The reaction mixture was incubated at 4° C. for 2 hr. The remaining methods were exactly as described for hSERT above.
(§8) The program was modified by the inventors to calculate the Hill Coefficient (nH). […] One-component models and two-component models were compared using the root mean square error of each fit and the F test.

[4] = target: T2, human serotonin transporter (hSERT) (Homo sapiens, UniProt P31645); type: binding
T2 construct: expressed in transfected cells; membranes of cells expressing the cloned hSERT
Experimental: as §3, §4, §5, §6, §8

[5] = target: T3, human dopamine transporter (hDAT) (Homo sapiens, UniProt Q01959); assay: [3H]WIN35428 binding to cloned human DAT; details: Kd (DA)/Kd (compound or drug) in the hDAT binding assay
T3 construct: expressed in transfected cells; membranes of cells expressing the cloned hDAT
Experimental: as §3, §4, §5, §7, §8

[6] = target: T4, NE reuptake into rat brain synaptosomes (Rattus norvegicus, UniProt Q63380); assay: biochemical; parameters: species or system rat (male Sprague-Dawley), hippocampal tissue
T4 construct: A crude synaptosomal (P2) fraction was prepared; tissue Harlan Sprague-Dawley (animals); host or cells: rat hippocampus, crude synaptosomal (P2) fraction

[7] = target: T5, 5-HT reuptake into rat brain synaptosomes (Rattus norvegicus, UniProt P31652); assay: 5-HT reuptake inhibition in rat brain synaptosomes; type: biochemical, rat (male Sprague-Dawley), cortical tissue; details: Ki (5-HT)/Ki (compound or drug); Prozac to Serzone derived from literature Ki
T5 construct: A crude synaptosomal (P2) fraction was prepared; tissue Harlan Sprague-Dawley (animals); host or cells: rat cerebral cortex, crude synaptosomal (P2) fraction
Experimental: as §1, §2

[8] = target: T4, NE reuptake into rat brain synaptosomes; details: cited from earlier work
[9] = Table 5, comparison of rat and human data
[10] = Kd (NE)/Kd (compound or drug) in the hNET binding assay
[11] = Kd (5-HT)/Kd (compound or drug) in the hSERT binding assay
[12] = Ki (NE)/Ki (compound or drug), Prozac to Serzone derived from literature Ki

T3 sequence (Q01959 whole entry): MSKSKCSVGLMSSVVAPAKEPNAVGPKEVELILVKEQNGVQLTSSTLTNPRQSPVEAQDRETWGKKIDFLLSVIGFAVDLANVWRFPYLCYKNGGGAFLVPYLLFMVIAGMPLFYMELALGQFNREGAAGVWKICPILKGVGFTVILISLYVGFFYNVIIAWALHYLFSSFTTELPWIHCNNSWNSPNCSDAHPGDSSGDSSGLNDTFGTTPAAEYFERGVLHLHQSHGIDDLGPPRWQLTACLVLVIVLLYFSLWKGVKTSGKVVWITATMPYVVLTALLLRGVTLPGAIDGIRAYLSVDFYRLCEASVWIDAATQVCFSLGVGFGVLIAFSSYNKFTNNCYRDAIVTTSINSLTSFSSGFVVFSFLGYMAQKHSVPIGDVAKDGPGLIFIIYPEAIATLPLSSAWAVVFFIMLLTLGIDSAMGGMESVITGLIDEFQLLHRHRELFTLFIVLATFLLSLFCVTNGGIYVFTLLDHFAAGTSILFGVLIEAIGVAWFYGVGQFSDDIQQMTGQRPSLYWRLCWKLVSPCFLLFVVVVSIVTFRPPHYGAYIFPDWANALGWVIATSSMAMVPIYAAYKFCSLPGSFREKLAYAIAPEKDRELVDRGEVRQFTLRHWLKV
Sequence of human norepinephrine transporter (hNET) (P23975 whole entry): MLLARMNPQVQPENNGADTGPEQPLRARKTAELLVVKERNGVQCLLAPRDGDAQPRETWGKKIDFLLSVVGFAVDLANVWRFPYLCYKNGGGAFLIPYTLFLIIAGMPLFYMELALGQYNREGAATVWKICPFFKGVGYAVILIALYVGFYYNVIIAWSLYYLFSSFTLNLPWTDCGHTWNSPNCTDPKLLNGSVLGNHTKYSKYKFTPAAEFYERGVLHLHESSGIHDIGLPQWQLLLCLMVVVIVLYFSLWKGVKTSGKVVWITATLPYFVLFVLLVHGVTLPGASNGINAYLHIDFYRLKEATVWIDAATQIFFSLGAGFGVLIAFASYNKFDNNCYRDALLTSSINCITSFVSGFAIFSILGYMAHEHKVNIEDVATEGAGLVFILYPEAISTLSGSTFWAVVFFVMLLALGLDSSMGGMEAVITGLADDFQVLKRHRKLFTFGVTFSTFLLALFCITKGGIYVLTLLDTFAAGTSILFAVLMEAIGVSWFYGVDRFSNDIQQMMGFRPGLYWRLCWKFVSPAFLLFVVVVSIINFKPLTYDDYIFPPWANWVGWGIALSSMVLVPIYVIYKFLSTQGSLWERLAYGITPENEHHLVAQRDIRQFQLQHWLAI
T2 sequence (P31645 whole entry): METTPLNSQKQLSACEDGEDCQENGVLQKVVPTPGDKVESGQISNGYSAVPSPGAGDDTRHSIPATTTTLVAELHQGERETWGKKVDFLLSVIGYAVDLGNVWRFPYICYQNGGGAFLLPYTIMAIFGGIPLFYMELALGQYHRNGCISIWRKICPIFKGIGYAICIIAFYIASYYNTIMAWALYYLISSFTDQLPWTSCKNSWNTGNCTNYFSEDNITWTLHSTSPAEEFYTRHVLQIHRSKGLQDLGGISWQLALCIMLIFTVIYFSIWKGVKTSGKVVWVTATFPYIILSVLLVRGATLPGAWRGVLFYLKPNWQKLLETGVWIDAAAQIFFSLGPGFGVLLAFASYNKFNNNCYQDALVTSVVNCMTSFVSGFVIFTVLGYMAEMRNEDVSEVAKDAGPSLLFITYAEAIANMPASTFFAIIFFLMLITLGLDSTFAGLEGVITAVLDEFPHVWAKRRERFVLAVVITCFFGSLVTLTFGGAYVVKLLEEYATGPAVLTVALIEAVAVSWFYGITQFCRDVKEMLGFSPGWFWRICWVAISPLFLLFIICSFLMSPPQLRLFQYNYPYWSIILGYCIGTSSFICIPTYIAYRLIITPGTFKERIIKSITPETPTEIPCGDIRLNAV
T4 sequence (Q63380 1-617): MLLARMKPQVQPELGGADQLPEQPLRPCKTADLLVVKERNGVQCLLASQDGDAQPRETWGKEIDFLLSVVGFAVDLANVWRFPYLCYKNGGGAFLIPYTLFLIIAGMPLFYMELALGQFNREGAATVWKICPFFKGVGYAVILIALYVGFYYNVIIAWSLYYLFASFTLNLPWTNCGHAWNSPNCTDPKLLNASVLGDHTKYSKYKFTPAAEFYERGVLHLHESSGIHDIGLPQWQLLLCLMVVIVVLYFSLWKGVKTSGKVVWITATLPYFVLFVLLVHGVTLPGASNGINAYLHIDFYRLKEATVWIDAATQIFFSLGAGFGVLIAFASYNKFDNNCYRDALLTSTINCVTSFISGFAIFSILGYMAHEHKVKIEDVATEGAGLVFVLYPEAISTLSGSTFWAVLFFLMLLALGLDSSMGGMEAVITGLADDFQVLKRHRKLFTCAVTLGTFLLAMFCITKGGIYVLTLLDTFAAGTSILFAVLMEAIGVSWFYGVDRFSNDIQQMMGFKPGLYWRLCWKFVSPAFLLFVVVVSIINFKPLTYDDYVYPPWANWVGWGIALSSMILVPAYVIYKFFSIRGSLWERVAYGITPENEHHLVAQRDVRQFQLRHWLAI
T1 sequence (P23977 whole entry): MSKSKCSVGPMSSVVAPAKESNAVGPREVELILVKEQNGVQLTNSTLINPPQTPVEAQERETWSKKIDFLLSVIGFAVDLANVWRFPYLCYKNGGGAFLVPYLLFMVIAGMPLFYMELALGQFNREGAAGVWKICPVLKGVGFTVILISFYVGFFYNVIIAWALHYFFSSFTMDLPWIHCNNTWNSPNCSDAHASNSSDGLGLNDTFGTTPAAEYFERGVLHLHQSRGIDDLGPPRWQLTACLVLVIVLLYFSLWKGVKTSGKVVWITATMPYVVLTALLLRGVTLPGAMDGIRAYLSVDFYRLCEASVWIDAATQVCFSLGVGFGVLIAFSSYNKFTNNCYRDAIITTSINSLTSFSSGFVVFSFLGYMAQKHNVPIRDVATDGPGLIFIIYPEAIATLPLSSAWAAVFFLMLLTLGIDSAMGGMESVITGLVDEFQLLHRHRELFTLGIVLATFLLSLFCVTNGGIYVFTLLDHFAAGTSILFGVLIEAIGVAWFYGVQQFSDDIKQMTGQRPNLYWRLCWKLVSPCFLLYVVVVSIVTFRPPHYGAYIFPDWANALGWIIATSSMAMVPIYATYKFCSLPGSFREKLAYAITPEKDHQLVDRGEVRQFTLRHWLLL
T5 sequence (P31652 whole entry): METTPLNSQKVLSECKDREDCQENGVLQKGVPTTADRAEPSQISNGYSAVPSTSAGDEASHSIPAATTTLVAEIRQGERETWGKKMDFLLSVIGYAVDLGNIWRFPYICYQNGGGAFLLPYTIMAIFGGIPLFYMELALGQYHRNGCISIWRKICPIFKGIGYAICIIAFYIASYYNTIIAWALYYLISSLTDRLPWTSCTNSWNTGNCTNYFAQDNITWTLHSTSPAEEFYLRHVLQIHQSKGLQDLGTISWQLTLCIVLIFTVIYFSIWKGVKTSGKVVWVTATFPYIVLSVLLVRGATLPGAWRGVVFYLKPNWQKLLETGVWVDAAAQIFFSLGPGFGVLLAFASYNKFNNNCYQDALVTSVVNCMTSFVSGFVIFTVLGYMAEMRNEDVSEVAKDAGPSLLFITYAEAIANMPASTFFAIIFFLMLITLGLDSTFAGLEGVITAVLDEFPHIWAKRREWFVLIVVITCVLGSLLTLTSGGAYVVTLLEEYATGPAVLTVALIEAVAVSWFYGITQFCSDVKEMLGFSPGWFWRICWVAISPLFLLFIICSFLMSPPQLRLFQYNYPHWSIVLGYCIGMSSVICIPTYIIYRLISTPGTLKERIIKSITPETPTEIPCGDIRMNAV

With `CNCCC(Oc1ccc(C(F)(F)F)cc1)c1ccccc1` (centres unmarked) [Prozac ®, reference compound] the “Simultaneous Reuptake Inhibition Potency” value [1] was “no”, the “Simultaneous Reuptake Inhibition Potency (Rat)” value [1] was “no” and the “DA (Rat) Reuptake Inhibition Potency” value [2] was 0.02.
With `CN(C)C[C@H](c1ccc2ccccc2c1)[C@H](O)C(C)(C)C` (relative stereo) [Compound A, (2RS,3RS)-3-Hydroxy-4,4-dimethyl-2-(2'-naphthyl)pentyl-N, N-dimethyl-ammonium chloride] the “Simultaneous Reuptake Inhibition Potency” value [1] was “yes (A compound or drug is considered to possess simultaneous reuptake inhibition potency if each of the potency values is greater than 1.0.)”, the “simultaneous reuptake inhibition potency, in words” value [1] was “possess the quality of "simultaneous reuptake inhibition potency"” and the “Simultaneous Reuptake Inhibition Potency (Rat)” value [1, 9] was “yes (A compound or drug is considered to possess simultaneous reuptake inhibition potency if each of the potency values is greater than 1.0.)”. The “reuptake inhibition of all three neurotransmitters in both the rat and human models, in words” value [1] was “potently inhibit reuptake of all three neurotransmitters in both the rat and human models”, the “block uptake of all three neurotransmitters (5-HT, NE, and DA), Ki in words” value (shortened to “block uptake”) [1] was “nanomolar to 10 nanomolar range” and the “hNet Binding Potency” value [3, 10] was 73.6. The “Simultaneous Transporter Binding Potency” value (hSERT, hNET, and hDAT) was “yes (A compound or drug is considered to possess "simultaneous transporter binding potency" if each of the potency values is greater than 7.0.)”, the “Simultaneous Transporter Binding Potency (Human)” value (hSERT, hNET, and hDAT) was “yes (A compound or drug is considered to possess "simultaneous transporter binding potency" if each of the potency values is greater than 7.0.)” and the “simultaneous transporter binding potency, in words” value (hSERT, hNET, and hDAT) was “qualify for simultaneous transporter binding potency”. The “DA (Rat) Reuptake Inhibition Potency” value [2] was 1.11, the Ki ([2]; rat brain synaptosomes) was 60 ± 10 nM and the “hSert Binding Potency” value [4, 11] was 1,750. The “hDAT Binding Potency” value [5] was 7.16, the “NE (Rat) Reuptake Inhibition Potency” value [6, 12] was 12.0 and the Ki ([6]; rat brain synaptosomes) was 10 ± 1 nM.
With `COc1ccc(C(CN(C)C)C2(O)CCCCC2)cc1` (centres unmarked) [Effexor ®, reference compound] the “Simultaneous Reuptake Inhibition Potency” value [1] was “no”, the “Simultaneous Reuptake Inhibition Potency (Rat)” value [1] was “no” and the “DA (Rat) Reuptake Inhibition Potency” value [2] was 0.18.
With `CCc1nn(CCCN2CCN(c3cccc(Cl)c3)CC2)c(=O)n1CCOc1ccccc1` [Serzone ®, reference compound] the “Simultaneous Reuptake Inhibition Potency” value ([1]; Table 2, each of the potency values greater than 1.0) was “no” and the “DA (Rat) Reuptake Inhibition Potency” value [2] was 0.03.
For `NC[C@H](c1ccc2ccccc2c1)[C@H](O)c1ccccc1` (relative stereo) [Compound D, (2RS,3RS)-3-Hydroxy-2-(2'-naphthyl)-3-phenyl-propylammoni um chloride], the “Simultaneous Reuptake Inhibition Potency” value [1] was “no”, the “simultaneous reuptake inhibition potency, in words” value [1] was “narrowly misses the criterion for simultaneous reuptake inhibition potency” and the “Simultaneous Reuptake Inhibition Potency (Rat)” value [1, 9] was “no”. For the same molecule, the “block uptake” value [1] was “nanomolar to 10 nanomolar range”, the “5-HT (Rat) Reuptake Inhibition Potency” value [7] was 0.68 and the “Simultaneous Transporter Binding Potency” value (hSERT, hNET, and hDAT) was “yes (A compound or drug is considered to possess "simultaneous transporter binding potency" if each of the potency values is greater than 7.0.)”. For the same molecule, the “Simultaneous Transporter Binding Potency (Human)” value (hSERT, hNET, and hDAT) was “yes (A compound or drug is considered to possess "simultaneous transporter binding potency" if each of the potency values is greater than 7.0.)”, the “simultaneous transporter binding potency, in words” value (hSERT, hNET, and hDAT) was “qualify for simultaneous transporter binding potency; also recorded: meets the criterion for simultaneous transporter binding potency” and the “hSert Binding Potency” value [4, 11] was 340. For the same molecule, the “hDAT Binding Potency” value [5] was 16.8.
In the case of `CN(C)C[C@H](c1ccc2ccccc2c1)[C@H](O)c1ccccc1` (relative stereo) [Compound B, (2RS,3RS)-3-Hydroxy-2-(2'-naphthyl)-3-phenylpropyl-N, N-dimethylammonium chloride], the “Simultaneous Reuptake Inhibition Potency” value [1] is reported as “yes (A compound or drug is considered to possess simultaneous reuptake inhibition potency if each of the potency values is greater than 1.0.)”, the “simultaneous reuptake inhibition potency, in words” value [1] is reported as “possess the quality of "simultaneous reuptake inhibition potency"” and the “Simultaneous Reuptake Inhibition Potency (Rat)” value [1, 9] is reported as “yes (A compound or drug is considered to possess simultaneous reuptake inhibition potency if each of the potency values is greater than 1.0.)”. The “reuptake inhibition of all three neurotransmitters in both the rat and human models, in words” value [1] was “potently inhibit reuptake of all three neurotransmitters in both the rat and human models”, the “block uptake” value [1] was “nanomolar to 10 nanomolar range” and the “Simultaneous Transporter Binding Potency” value (hSERT, hNET, and hDAT) was “yes (A compound or drug is considered to possess "simultaneous transporter binding potency" if each of the potency values is greater than 7.0.)”. The “Simultaneous Transporter Binding Potency (Human)” value (hSERT, hNET, and hDAT) was “yes (A compound or drug is considered to possess "simultaneous transporter binding potency" if each of the potency values is greater than 7.0.)”, the “simultaneous transporter binding potency, tightened criterion” value (hSERT, hNET, and hDAT; all potency values must be greater than 30) was “still qualifies” and the “simultaneous transporter binding potency, in words” value (hSERT, hNET, and hDAT) was “qualify for simultaneous transporter binding potency”. For the same molecule, the “hSert Binding Potency” value [4] was 376 and the “hDAT Binding Potency” value [5] was 34.3.
In the case of `COc1ccc([C@H](CN(C)C)[C@@H](O)C2CCCCC2)cc1.Cl` (racemic) [Compound E, (2RS,3SR)-3-Cyclohexyl-3-hydroxy-2-(4'-methoxyphenyl)-propyl-N,N-dimethylammonium chloride], the “Simultaneous Reuptake Inhibition Potency” value [1] is reported as “no”, the “Simultaneous Reuptake Inhibition Potency (Rat)” value [1, 9] is reported as “no” and the “hNet Binding Potency” value [3, 10] is reported as 1.24. For the same molecule, the “5-HT (Rat) Reuptake Inhibition Potency” value [7] was 0.62, the “Simultaneous Transporter Binding Potency” value (hSERT, hNET, and hDAT) was “no” and the “Simultaneous Transporter Binding Potency (Human)” value (hSERT, hNET, and hDAT) was “no”. The “DA (Rat) Reuptake Inhibition Potency” value [2] was 0.10, the “hSert Binding Potency” value [4] was 70 and the “hDAT Binding Potency” value [5] was 0.69. For the same molecule, the “NE (Rat) Reuptake Inhibition Potency” value [6, 12] was 0.54.
In the case of `Fc1ccc([C@@H]2CCNC[C@H]2COc2ccc3c(c2)OCO3)cc1` [Paxil ®, reference compound], the “Simultaneous Reuptake Inhibition Potency” value [1] is reported as “no”, the “Simultaneous Reuptake Inhibition Potency (Rat)” value [1] is reported as “no” and the “hNet Binding Potency” value [3] is reported as 55. For the same molecule, the Ki [8] was 33 ± 2 nM and the “NE (Rat) Reuptake Inhibition Potency” value [6] was 3.61.
With `CC(C)(C)[C@@H](O)[C@H](CN)c1ccc2ccccc2c1` (relative stereo) [Compound C, (2RS,3RS)-3-hydroxy-4,4-dimethyl-2-(2'-naphthyl)pentyl-ammonium chloride] the “Simultaneous Reuptake Inhibition Potency” value [1] was “no”, the “Simultaneous Reuptake Inhibition Potency (Rat)” value [1, 9] was “no” and the “hNet Binding Potency” value [3, 10] was 39.9. For the same molecule, the “Simultaneous Transporter Binding Potency” value (hSERT, hNET, and hDAT) was “no”, the “Simultaneous Transporter Binding Potency (Human)” value (hSERT, hNET, and hDAT) was “no” and the “DA (Rat) Reuptake Inhibition Potency” value [2] was 0.57. For the same molecule, the “hSert Binding Potency” value [4, 11] was 347 and the “hDAT Binding Potency” value [5] was 0.09.
With `CNCC[C@@H](Oc1ccccc1C)c1ccccc1` [Tomoxetine, reference compound] the “Simultaneous Reuptake Inhibition Potency” value [1] was “no”.
